Experimental data as given in publication PMC12756723, “Derivatives of the Cashew Nut Shell Liquid as Ligands of Pseudomonas aeruginosa Phenazine Protein D (PaPhzD)” (ACS Omega, 2025).
Entries after “also recorded” stand apart in the source; their conditions may differ.

Assays:
PaPhzD = target: T1, PaPhzD (Pseudomonas aeruginosa, UniProt P0DPB9); test: Thermal shift assay (TSA) with SYPRO Orange; assay type: binding; conditions: for Concentration–response behavior of ΔTm: 6.25 to 100 μM; for ΔTm at 50 µM: read-out: ΔTm of PaPhzD
T1 construct: inferred from Ni-NTA purification with imidazole elution; made in house; host or cells: E. coli BL21(DE3)
T1 sequence (P0DPB9 whole entry): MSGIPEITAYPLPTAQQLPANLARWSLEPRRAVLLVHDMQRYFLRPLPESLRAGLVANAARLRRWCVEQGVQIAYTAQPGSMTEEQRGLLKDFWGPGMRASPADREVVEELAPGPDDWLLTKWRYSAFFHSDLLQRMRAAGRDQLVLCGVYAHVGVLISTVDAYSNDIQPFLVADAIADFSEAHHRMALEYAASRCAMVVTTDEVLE
Experimental: Thermal shift assays were performed on an Applied Biosystems 7500 RT-PCR (Applied Biosystems, Foster City, CA USA). All experiments were carried out in triplicate with 1 °C per minute increments in temperatures that range from 25 to 85 °C in 96-well PCR plates (PCR plates 96-well, BioRad), sealed with transparent capping strips (Flatcap strips, BioRad). The fluorescence of SYPRO Orange (Invitrogen S6650) was monitored (excitation wavelength, 492 nm; emission wavelength, 610 nm). Before the compounds’ screening, protein and DMSO concentrations were evaluated to improve PaPhzD stability throughout the assay.
The protein concentration required for an optimal signal-to-noise ratio (>5-fold) was evaluated by analysis of the raw fluorescence curves at different PaPhzD concentrations (1–5 μM). Then, the effect of DMSO (0–10%) over PaPhzD T m was evaluated at the optimal protein concentration. Fluorescence raw data were recorded using Applied Biosystems 7500 Software v2.0 and then processed with NAMI software to calculate T m values by the first-derivative method.
LDT compounds were screened at a final concentration of 50 μM. Briefly, 1 μL of each compound (1 mM DMSO stock solution) was added to a mixed solution containing 5 μM PaPhzD diluted in 50 mM Tris–HCl buffer (pH 8.0) containing 100 mM NaCl, 1 mM DTT, and SYPRO Orange dye (Invitrogen S6650) (1:100 dilution). Each compound was assayed in triplicate, and ΔT m values were calculated by comparison to reference wells that had 1 μL DMSO instead of the LDT compounds. Differences between T m values (ΔT m) were considered statistically significant when p < 0.01, according to the one-way ANOVA followed by Dunnett’s post-test for multiple comparisons, available in GraphPad Prism 9.0 software (GraphPad Software, San Diego, CA, USA, www.graphpad.com).
Compounds with ΔT m values statistically different from the reference were also assayed at different concentrations (ranging from 6.25 to 100 μM) to evaluate the concentration–response behavior. The ΔT m versus concentration plots were generated using the nonlinear regression method available in GraphPad Prism version 9.0.

PaPhzD-FITC = target: T2, PaPhzD-FITC (Pseudomonas aeruginosa, UniProt P0DPB9); test: Fluorescence binding assay with FITC-labeled PaPhzD
T2 construct: inferred from Ni-NTA purification with imidazole elution; made in house; host or cells: E. coli BL21(DE3)
T2 sequence (P0DPB9 whole entry): as above
Experimental: PaPhzD (2.1 mg/mL) was incubated with 6 mg/mL fluorescein isothiocyanate (FITC) (Sigma-Aldrich 46950) (1:1) for 2 h at 25 °C. Next, the reaction mixture was eluted on a Hi-Trap HP desalting column (GE Healthcare) with 2 CV of 50 mM HEPES buffer (pH 8.0). The collected fractions were quantified at two different wavelengths (280 and 495 nm), and the molar ratio (Abs495/Abs280) ranging from 0.3 to 1.0 was employed for K d calculation experiments.
Subsequently, the fluorescence intensity of 0.32 μM of FITC-labeled PaPhzD was measured on a real-time thermocycler (Applied Biosystems 7500) equipped with the filter FAN (excitation wavelength: 498 nm; emission wavelength: 530 nm) for 10 min in the presence of different concentrations of each LDT compound (ranging 0.7–100 μM), previously diluted in DMSO.
The fluorescence raw data were recorded using Applied Biosystems 7500 Software v2.0, then exported to GraphPad Prism version 9.0 software to build fluorescence intensity × concentration plots and calculate K d values of the ligands by the nonlinear regression method (3-parameter fit). All experiments were carried out in triplicate using a 96-well PCR plate, manually sealed with transparent capping strips (Flatcap strips, BioRadVR).

human PPAR isoforms = system: human PPAR isoforms; set-up: method as in Sahin et al. 2022 (likely, number not given); conditions: previously investigated; ref Sahin et al. 2022 (likely, number not given); cited from earlier work
[1] = system: P. aeruginosa cells (ATCC 27853); test: Screening of PYO production inhibitors (supernatant absorbance 691 nm); assay type: cell-based, Pseudomonas aeruginosa; conditions: 100 μM; for Pyocyanin production, Cohen's d vs control: 24 h, 30 °C; for Effect on pyocyanin production: vs DMSO control
Experimental: P. aeruginosa cells (ATCC 27853) were inoculated by depletion on King’s A agar, and the plates were incubated at 30 °C for 24 h. Isolated colonies were collected and resuspended in sterile saline solution (0.85%) until turbidity equivalent to optical density (OD) at 600 nm, equal to 0.3 (1.5 × 10^8 CFU/mL). This bacterial suspension was diluted 10-fold and used to inoculate King’s A broth.
(§1) The potential inhibitors, previously solubilized in DMSO, were added to the culture medium after the inoculation (final concentration = 100 μM). The control group was cultured in the presence of an equivalent volume of DMSO but without the presence of potential inhibitors. The cell suspension was maintained at 30 °C under constant agitation (180 rpm) for 24 h in a 24-well plate. After this period, the OD600 was measured to evaluate bacterial growth, and in parallel, after being subjected to centrifugation, the supernatant was read in a 96-well plate at a wavelength of 691 nm. The sterile medium used for culturing the microorganism was used as a positive control, and culture medium containing 1% DMSO was used as a negative control.

P. aeruginosa PA14 [2] = test: Biofilm assay (crystal violet); assay type: cell-based, Pseudomonas aeruginosa; conditions: 100 μM
Experimental: Exponential phase cultures of P. aeruginosa PA14 were diluted to 5 × 10^5 colony forming units (CFU) in 48-well plates with LB containing each compound (1, 3, and 5) at 100 μM final concentrations or 0.1% DMSO (v/v) as a negative control. The plate was incubated steadily at 30 °C for 20 h inside a plastic bag to avoid evaporation. After the incubation, the OD600 of each well was measured in a plate reader (SpectraMax Paradigm). The planktonic bacteria were removed by turning the plate over the waste, followed by three steps of washing with distilled water. After drying, a solution of 1% crystal violet was added to each well and incubated at room temperature for 30 min to stain the attached cells forming a ring at the air–liquid interface. The crystal violet solution was removed, and the plate was washed using the same procedure. The dye was solubilized with 30% acetic acid for 30 min at room temperature. The Abs550 was measured, and the value was divided by the OD600 for each well. A total of 24 replicates were made for each treatment (6 wells per plate, four plates)

P. aeruginosa PA14 [3] = test: Swarming assay; assay type: cell-based, Pseudomonas aeruginosa; conditions: 100 μM
Experimental: Swarming assays were performed as described, using 6-well plates. Briefly, 3 μL of culture (OD600 = 3.0) was inoculated in the center of modified M9 (20 mM NH4Cl; 12 mM Na2HPO4; 22 mM KH2PO4; 8.6 mM NaCl; 1 mM MgSO4; 1 mM CaCl2 2 H2O; 11 mM glucose; 0.5% casamino acids (Difco)) with 0.5% of Bacto-agar (Difco), containing the respective compounds (100 μM final concentration, diluted in DMSO). Plates were incubated inside plastic bags to avoid evaporation at 30 °C for 16 h. After this period, pictures were taken, and the area covered by the colonies was measured using ImageJ. All assays were performed with four replicates, and 0.1% DMSO (v/v) was employed as a negative control.

P. aeruginosa = test: Colony morphology in medium containing compounds; assay type: cell-based, Pseudomonas aeruginosa; conditions: data not shown
PPAR LBDs = system: PPAR LBDs; set-up: method as in not printed (previous PPAR work); conditions: ref not given (previous PPAR work), cited from earlier work
[4] = system: P. aeruginosa cells (ATCC 27853); test: Bacterial growth (OD600) in the PYO screening culture; assay type: cell-based, Pseudomonas aeruginosa; conditions: 100 μM
Experimental: as §1

phzA1-G1 = test: lacZ transcriptional fusion, phzA1-G1 operon; assay type: cell-based, Pseudomonas aeruginosa; conditions: late exponential phase
Experimental: (§2) P. aeruginosa harbors two identically structured operons in its genome, which encode most of the enzymes responsible for PYO synthesis (phzA1-G1 and phzA2-G2) but have slightly different regulatory regions 1. lacZ transcriptional fusions for each operon were assayed at mid-log and late exponential phases (OD=1 and 3, respectively). At mid-log cultures, the expression of both QS-regulated operons is extremely low, and it increases more than 1000-fold at late exponential phase for phzA1-G1 and 4-fold for phzA2-G2, as expected. Addition of compounds 2 and 4 had no effect for both operons in the late […]
(§3) synthesis is not related to inhibition at the transcriptional level.
(§4) Figure 7S: Effect of LDT10 (2) and LDT13 (3) on the phzA1-G1 (A) and phzA2-G2 […]
(§5) (1 picture or pasted object on this page, not shown here)

phzA2-G2 = test: lacZ transcriptional fusion, phzA2-G2 operon; assay type: cell-based, Pseudomonas aeruginosa; conditions: late exponential phase
Experimental: as §2, §3, §4, §5

Row | Compound | Concentration–response behavior of ΔTm (PaPhzD) | ΔTm at 50 µM (PaPhzD) [°C] | PPAR activity profile (human PPAR isoforms) | also measured
1 | CCCCCCCCCCCCCCCc1cccc(OCC(=O)O)c1 [Compound 15] | clear concentration–response behavior | -3.8 | pan-agonist activity | Kd (PaPhzD-FITC): 1000 µM
2 | CCCCCCCCCCCCCCCc1cccc(OC)c1 [Compound 12] |  | < 0.5 | do not activate PPAR receptors | 
3 | CCCCCCCCCCCCCCCc1cccc(OC)c1C(=O)OC [Compound 9] |  | < 0.5 | do not activate PPAR receptors | 
4 | CCCCCCCCCCCCCCCc1cccc(OC(C)=O)c1C(=O)O [Compound 3] | clear concentration–response behavior | -4.7 | pan-agonist activity | Kd (PaPhzD-FITC): 0.72 µM; Pyocyanin production, Cohen's d vs control [1]: −1.37; Effect on pyocyanin production [1]: no effect on pyocyanin production; Biofilm mass, % of the control (P. aeruginosa PA14 [2]): ~30%; Biofilm, Cohen's d vs control (P. aeruginosa PA14 [2]): −2.29; Effect on swarming coverage area (P. aeruginosa PA14 [3]): did not affect the coverage area; Swarming motility, Cohen's d vs control (P. aeruginosa PA14 [3]): 0.51; Effect on colony morphology (P. aeruginosa): No effects on colony morphology; Increase of PPAR LBDs Tm vs DMSO control (PPAR LBDs; 50 μM): up to +17 °C
5 | CCCCCCCCCCCCCCCc1cccc(OC(C)=O)c1C(=O)OC [Compound 8] |  | < 0.5 | do not activate PPAR receptors | 
6 | CCCCCCCCCCCCCCCc1cccc(OCC(=O)OCC)c1 [Compound 13] |  | -1.2 | pan-agonist activity | Thermal shift in LBDs of PPARα and PPARγ (PPAR LBDs): negative thermal shift
7 | CCCCCCCCCCCCCCCc1cccc(O)c1C(=O)OC [Compound 7] |  | < 0.5 | do not activate PPAR receptors | 
8 | CCCCCCCCCCCCCCCc1cccc(OC(C)=O)c1 [Compound 11] |  | < 0.5 | do not activate PPAR receptors | 
9 | CCCCCCCCCCCCCCCc1cccc(O)c1C(=O)O [Compound 1] | clear concentration–response behavior |  | dual (PPARα and PPARγ) agonists | 
10 | CCCCCCCCCCCCCCCc1cccc(OC(C)(C)C(=O)OCC)c1 [Compound 14] |  | < 0.5 | dual (PPARα and PPARγ) agonists | Effect on Tm values for all three PPARs (PPAR LBDs): no effect on the T m values
11 | CCCCCCCCCCCCCCCc1cccc(OC(C)(C)C(=O)O)c1 [Compound 16] |  | -2.6 | pan-agonist activity | 
12 | CCCCCCCCCCCCCCCc1ccc(C(=O)O)c(OC)c1 [Compound 10] |  | -1.2 | dual (PPARα and PPARγ) agonists | 
13 | CCCCCCCCCCCCCCCc1cccc(OC)c1C(=O)O [Compound 4] | clear concentration–response behavior | -3.3 | selective PPARα agonist | Kd (PaPhzD-FITC): 3.6 µM; Pyocyanin production, Cohen's d vs control [1]: −2.69; Effect on pyocyanin production [1]: decreased pyocyanin production; Effect on bacterial growth [4]: without affecting bacterial growth; also recorded: no significant effect on bacterial growth; Effect on biofilm formation (P. aeruginosa PA14 [2]; vs DMSO control): without affecting bacterial growth or biofilm formation; also recorded: not significantly different the control; Swarming motility, % compared to control conditions (P. aeruginosa PA14 [3]): 65%; Swarming motility, Cohen's d vs control (P. aeruginosa PA14 [3]): −0.95; Effect on colony morphology (P. aeruginosa): No effects on colony morphology; Effect on phzA1-G1 transcription (phzA1-G1): no effect; Effect on phzA2-G2 transcription (phzA2-G2): no effect
